These results are taken from article PMC11475570, “Impact of Optimized Ku–DNA Binding Inhibitors on the Cellular and In Vivo DNA Damage Response” (Cancers, 2024).

Broadly, the viability is the share of living cells, or the viability signal relative to a control. A lower viability goes with more harm to the cells. For orientation: IC50 means the concentration needed to halve the response being measured. Lower therefore signals greater potency in that assay.

One data set has as its system A549. Nature of the data set: CCK-8 cell viability, single agent. It is filed as cell-based, Human. How it is done:
(§1) Cell metabolism/viability was assessed using a mitochondrial metabolism assay (CCK-8) kit (Cell Counting Kit-8, Cat: CK04, Dojindo Laboratories, Rockville, MD, USA) as previously described. Briefly, cells were seeded at a density of 3 × 10^3 cells per well in 96-well plates and allowed to adhere and stretch for 18–24 h prior to treatment. Cells were pre-treated with Ku-DBi for 24 h before bleomycin treatments. Subsequently, cells were incubated for an additional 48 h at 37 °C after which CCK-8 assay was performed. The absorbance of the formed formazan product in each well was measured at 450 nm and compared to vehicle-treated controls to determine percent cell viability. The results represent the average and SEM of triplicate determinations.

A further data set relates to H1299. Kind of data set: CCK-8 cell viability, single agent. It is filed as cell-based, Human. The protocol: as §1
The next data set has as its system H23. Nature of the data set: CCK-8 cell viability, single agent. It is filed as cell-based, Human. As to conditions: Homo sapiens. The protocol: as §1
The test system of the next data set is H460. Kind of data set: CCK-8 cell viability, single agent. It is filed as cell-based, Human. As to conditions: for IC50: H460, CCK-8, 72 h, mean ± SD. How it is done: as §1
In the next data set the test system is MDA-436. Kind of data set: CCK-8 cell viability, single agent. Conditions: Homo sapiens. Type of data set: cell-based, Human. How it is done:
as §1

In a further data set the test system is MDA-468. Nature of the data set: CCK-8 cell viability, single agent. It is filed as cell-based, Human. Conditions: Homo sapiens. The protocol: as §1
The subject of data set [1] is A549 NSCLC adenocarcinoma xenograft. Nature of the data set: A549 NSCLC xenograft (CDX), intratumoral Ku-DBi with or without IR. Type of data set: in vivo, mice. Conditions: for Ki-67 expression in tumors: IHC and Western blot. The protocol:
The in vivo studies were conducted as approved by the Institutional Animal Care and Use Committee at Indiana University School of Medicine. A549 cells (~2.5 × 10^6) in 50% Matrigel were injected into the hind flanks of 8–10-week-old NOD.Cg-Rag1tm1Mom Il2rgtm1Wjl/SzJ (NRG) mice (IVT, In vivo Therapeutics Core, Indiana University Melvin and Bren Simon Comprehensive Cancer Center, Indianapolis, IN, USA) as previously described. Tumor volumes were monitored by electronic caliper measurement. Mice were randomized into groups of 3 or 4 using a random group generator; 6 different scenarios were generated, and the scenario with the most similar tumor volume averages across groups was selected. Treatments were initiated when tumors were ~600 mm^3. Tumors were administered Ku-DBi (30 µL of 10 mM) or vehicle (30 µL of DMSO) via intratumoral injection 4 h before 5 Gy irradiation of the tumor with a single dose of X-rays (250 kVp; dose rate = 1.4 Gy/min; 2 cm × 2 cm field) under isoflurane anesthesia. […] Mice were sacrificed 2 h post-irradiation (or 2 h post-sham irradiation); tumors were excised and processed for immunohistochemistry (IHC) assays. Cell-free protein extracts were prepared to assess DNA-PKcs autophosphorylation and γ-H2AX levels.
Protein lysates, ranging from 20 to 30 μg, were separated by SDS-PAGE (4–20% Mini Protean TGX Gels, BioRad, Hercules, CA, USA) and transferred onto PVDF membranes (Bio-Rad) through wet transfer. Membranes blocked in 0.5% Tween and 3% BSA in 1× TBS for 1 h were probed with the following primary antibodies: Phospho-DNA PKcs (S2056) (Cat: ab124918, Abcam, Cambridge, UK), total DNA-PKcs (Cat: sc-5282, Santa Cruz Biotechnology, Dallas, TX, USA), and γ-H2AX pS139 (Cat: 613401, BioLegend, San Diego, CA, USA). […] All primary antibodies were prepared with 3% BSA and 0.02% NaN3 in TBS with 0.5% Tween. Goat anti-rabbit or anti-mouse IgG (H + L)–HRP conjugates (Cat: 170-6515 or 170-6516, Bio-Rad) were used as secondary antibodies to detect these proteins. Imaging, densitometric analysis, and quantification of protein expression were performed as previously described.
Excised tumors were fixed in 4% paraformaldehyde (PFA) solution in PBS for 24 h at 4 °C. After fixation, tumors were transferred to 70% ethanol and paraffin embedding. Sectioning was completed by the Indiana University Histology Core at the IU School of Medicine. Representative 3 μm-thick sections for each treatment were stained with H and E (HE; Harris hematoxylin, regressive method) for histologic examination or were processed for Ki-67 IHC immunodetection. Briefly, paraffin-embedded sections were deparaffinized in a xylene series (4 × 3 min) and rehydrated in a series of graded alcohol dilutions (100%, 95%, 70%, and ddH2O, 2 × 2 min each). […]
In general terms: In western blotting, separated proteins are transferred to a membrane and probed.

For a further data set, the system named is A549 cells. Nature of the data set: γH2AX single-agent DNA damage (Western blot, immunofluorescence). As to conditions: Supplemental Figure S6. Type of data set: cell-based, Human. The source says:
Supplementary Figure S6. GL-3392 single agent effect on DNA damage in NSCLC.
(A) Western blot analysis from A549 cells nuclear extracts. (B) Densitometric analysis of bands from western blot immunodetection. The original membranes can be found in File S1 (Appendix for Supplementary Figure S6A). (C) γH2AX expression levels dete rmined by Immunofluorescence. IF staining of DAPI nuclear staining (blue) and γH2AX (pS139) (red). Scale bars: 10µm. (D) Quantitation of integrated fluorescence intensity of γH2AX foci represented as the median of 300 nuclei per field. ns: not significant, ****p <0.0001 as calculated by one-way ANOVA with Dunnett’s multiple comparisons test. […]

On to `COc1ccc(-c2ccc(/C=C3\C(=O)N(c4cccc(C(=O)O)c4)c4ccccc43)o2)cc1C(=O)Nc1cccc(OC(F)(F)F)c1` [GL-3392], for which the “Cell viability at the highest concentrations assessed” value in the data set on A549 (A549) was roughly 50%; in the data set on H1299 (H1299), ~ 90%. Also, the viability at 25 µM with A549 (Homo sapiens, A549, 25 µM) is 46.2 ± 3.8%; in the data set on H1299 (Homo sapiens, NCI-H1299, H1299, 25 µM), 89.9 ± 10.1%; in the data set with H23 (NCI-H23, H23, 25 µM) it was 12.7 ± 0.7%; in the data set with H460 (Homo sapiens, NCI-H460, H460, 25 µM), 12.3 ± 0.6%; with MDA-436 (MDA-436, 25 µM), 43.9 ± 2.6%; in the data set on MDA-468 (MDA-468, 25 µM), 29.4 ± 1.3%. Besides, the IC50 with A549 (Homo sapiens, A549, CCK-8, 72 h, mean ± SD) was greater than 50 µM; in the data set with H1299 (Homo sapiens, NCI-H1299, H1299, CCK-8, 72 h, mean ± SD), greater than 50 µM; in the data set with H23 (NCI-H23, 72 h, H23, CCK-8, 72 h, mean ± SD) it was roughly 8 µM; with H460, 7.7 ± 0.6 µM; with H460 (Homo sapiens, NCI-H460, 72 h), roughly 8 µM; in the data set on MDA-436 (MDA-436, CCK-8, 72 h, mean ± SD) it was 22.2 ± 1.4 µM. Moreover, inhibition in the data set on MDA-468 (MDA-468, CCK-8, 72 h, mean ± SD) was half-maximal at 10.4 ± 1.5 µM (IC50). The “Ki-67 expression in tumors” value in data set [1] (3392 intratumoral plus 5 Gy IR) is reported as “statistically significant decrease in the Ki-67 expression”; in data set [1] (single-agent 3392, intratumoral), “limited effects”. Further, in data set [1] (3392 intratumoral plus 5 Gy IR, Western blot), the γ-H2AX in tumors result was “further exacerbated in the combination-treated tumors”. Also, in data set [1] (intratumoral 30 µL of 10 mM, 4 h before 5 Gy, tumors taken 2 h post-irradiation, Western blot), the “IR-induced DNA-PKcs autophosphorylation in tumors” value was “effectively reversed the IR-induced DNA-PKcs autophosphorylation”. The “Induction of direct DNA damage, single agent” value in the data set with A549 cells was “cannot be attributed to induction of direct DNA damage”.
